Test results as given in patent US10570117B2, “Phenylimidazole compound” (Otsuka Pharmaceutical Factory, Inc., priority 2015, dated 2020).
Converted amounts (≈) assume the structure as drawn. Where two headings read alike, the source gives them in different places.

What was measured:
[1] = system: lipoprotein lipase (LPL) gene; test: LPL mRNA elevating action (RT-PCR quantification of LPL mRNA in C2Cl2 cells); type: cell-based, mouse; conditions: Mus musculus, 24 h, compound 10 μM, ratio relative to the amount of LPL mRNA in cells with DMSO only, read-out: Rate of increase in LPL mRNA
Summary of the method: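 Read-out is LPL mRNA relative to vehicle (DMSO = 1), measured by reverse transcription and 20-cycle real-time PCR. Cells were the mouse striated-muscle line C2Cl2, treated 24 h with 10 μM compound in DMEM containing 10% FBS.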

[2] = Solubility in gastric juice or intestinal juice model fluid (precipitation method using DMSO); type: physicochemical; conditions: room temperature
Summary of the method: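 Dissolved amount (μg/mL) quantified by UV of filtrate versus pre-made calibration curves. Precipitation approach: DMSO solutions spiked into pH 1.2 (JP 1st fluid) or pH 6.8 (JP 2nd fluid) medium, shaken at room temperature for 24 h before insolubles were filtered off.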

[3] = pH 1.2, simulated gastric fluid, kinetic from dmso stock, 1st fluid for Disintegration Test of Japanese Pharmacopoeia (pH: 1.2), read-out: Solubility (μg/mL) 1st fluid
[4] = pH 6.8, kinetic from dmso stock, 2nd fluid for Disintegration Test of Japanese Pharmacopoeia (pH: 6.8), read-out: Solubility (μg/mL) 2nd fluid

Row | Structure (SMILES) | fold induction at 10 µM [1] | solubility at 24 h [2, 3] | solubility at 24 h [2, 4] | melting point
1 | COc1cc(-c2[nH]c(C3CC(F)(F)C3)nc2Br)ccc1OCc1ccc(C(F)(F)F)nc1 [Example 178] | 3.58 | 98.5 µg/mL (≈ 190 µM) | 1.7 µg/mL (≈ 3.28 µM) | 168 to 170 °C
2 | Cc1cc(OCc2ncc(C(F)(F)F)cc2F)ccc1-c1[nH]c(-c2ccc(F)nc2)nc1Cl [Example 352] | 5.48 | 9.8 µg/mL (≈ 20.4 µM) | 6 µg/mL (≈ 12.5 µM) | 204 to 206 °C
3 | COc1cc(OCc2ccc(C(F)(F)F)cn2)ccc1-c1c[nH]c(C2CCC(C)CC2)n1 (stereo not drawn) [Example 65] | 2.89 | 77.3 µg/mL (≈ 174 µM) | 1.3 µg/mL (≈ 2.92 µM) | 137 to 142 °C
4 | COc1cc(OCc2ccc(C(F)(F)F)cn2)ccc1-c1c[nH]c(-c2ccc(Cl)cn2)n1 [Example 42] | 2.27 | 8.6 µg/mL (≈ 18.7 µM) | 2.3 µg/mL (≈ 4.99 µM) | 147 to 150 °C
5 | Oc1cc(OCc2ncc(C(F)(F)F)cc2F)ccc1-c1cnc(-c2ccc(F)nc2)[nH]1 [Example 406, 5-[[3-fluoro-5-(trifluoromethyl)pyridin-2-yl]methoxy]-2-[2-(6-fluoropyridin-3-yl)-1H-imidazol-5-yl]phenol] | 2.62 | > 90 µg/mL | 12.4 µg/mL (≈ 27.7 µM) | 202 to 207 °C
6 | Cc1cc(O)ccc1-c1cnc(-c2ccc(F)nc2)[nH]1 [Example 350] | 1.38 | 53.3 µg/mL (≈ 198 µM) | 51 µg/mL (≈ 189 µM) | 218 to 220 °C
7 | COc1cc(OCc2ncc(Cl)cc2F)ccc1-c1[nH]c(-c2ccc(F)nc2)nc1Br [Example 267] | 2.66 | 17.7 µg/mL (≈ 34.9 µM) | 0.4 µg/mL (≈ 0.788 µM) | 175 to 178 °C
8 | Fc1ccc(-c2ncc(-c3ccc(OCc4ncc(C(F)(F)F)cc4F)cc3Cl)[nH]2)cn1 [Example 360] | 3.93 | 90.7 µg/mL (≈ 194 µM) | 0.6 µg/mL (≈ 1.29 µM) | 169 to 171 °C
9 | COc1cc(-c2[nH]c(C3CC(F)(F)C3)nc2Cl)ccc1OCc1ncc(C(F)(F)F)cc1F [Example 354] | 4.44 | 38.8 µg/mL (≈ 78.9 µM) | 1.1 µg/mL (≈ 2.24 µM) | 159 to 161 °C
10 | COc1cc(-c2c[nH]c(-c3ccc(Cl)nc3)n2)c(OC)cc1OCc1ccc(C(F)(F)F)cn1 [Example 56] | 2.57 | 4.8 µg/mL (≈ 9.78 µM) | 0.8 µg/mL (≈ 1.63 µM) | 204 to 206 °C
11 | COc1cc(OCc2ccc(C(F)(F)F)cn2)ccc1-c1c(Br)nc(-c2ccc(F)nc2)n1C [Example 303] | 3.29 | 84.3 µg/mL (≈ 157 µM) | < 0.4 µg/mL | 130 to 132 °C
12 | COc1cc(OCc2ccc(C(F)(F)F)nc2)ccc1-c1nc(-c2ccc(F)cn2)[nH]c1C [Example 23] | 2.94 | 13.1 µg/mL (≈ 28.6 µM) | < 1.6 µg/mL | 140 to 142 °C
13 | COc1cc(OC(C)c2ncc(Br)cc2F)ccc1-c1[nH]c(-c2ccc(F)nc2)nc1Cl (stereo not drawn) [Example 238] | 2.42 | 7.5 µg/mL (≈ 14.4 µM) | 5.6 µg/mL (≈ 10.7 µM) | 173 to 175 °C
14 | COc1cc(OCc2ccc(C(F)(F)F)cn2)ccc1-c1nc(C2CCC(F)(F)CC2)n(CC2CC2)c1Cl [Example 292] | 2.81 | > 111 µg/mL | < 9.9 µg/mL | 144 to 146 °C
15 | Oc1cc(OCc2ncc(C(F)(F)F)cc2F)ccc1-c1[nH]c(-c2ccc(F)nc2)nc1Cl [Example 407] | 1.68 | 2.7 µg/mL (≈ 5.59 µM) | < 0.3 µg/mL | 229 to 233 °C (dec.)
16 | COc1cc(-c2c[nH]c(-c3ccc(F)nc3)n2)cc(OC)c1OCc1ccc(C(F)(F)F)cn1 [Example 46] | 2.49 | 22.9 µg/mL (≈ 48.3 µM) | < 9.1 µg/mL | 107 to 110 °C
17 | COc1cc(OCc2ncccc2C(F)(F)F)ccc1-c1[nH]c(C2CCC(F)(F)CC2)nc1Cl [Example 195] | 3.34 | > 100 µg/mL | 0.6 µg/mL (≈ 1.2 µM) | 162 to 164 °C
18 | COc1cc(OCc2ccnc(C(F)(F)F)c2)ccc1-c1cnc(-c2ccc(F)nc2)[nH]1 [Example 135] | 3.14 | 6.8 µg/mL (≈ 15.3 µM) | 2.2 µg/mL (≈ 4.95 µM) | 212 to 244 °C
19 | COc1cc(OCc2cnccc2C(F)(F)F)ccc1-c1cnc(-c2ccc(F)nc2)[nH]1 [Example 131] | 3.66 | 87.4 µg/mL (≈ 197 µM) | < 0.3 µg/mL | 178 to 180 °C
20 | COc1cc(OCc2c(F)cc(C(F)(F)F)c[n+]2[O-])ccc1-c1[nH]c(-c2ccc(F)nc2)nc1Br [Example 318] | 3.15 | 100 µg/mL (≈ 180 µM) | 8.7 µg/mL (≈ 15.6 µM) | 105 to 120 °C
21 | COc1cc(OCc2ccc(C(F)(F)F)nc2)ccc1-c1cnc(C2CCC(F)(F)CC2)[nH]1 [Example 17] | 3.2 | > 93 µg/mL | 3 µg/mL (≈ 6.42 µM) | 62 to 72 °C
22 | COc1cc(OCc2ncc(C(F)(F)F)cc2F)ccc1-c1[nH]c(-c2ccc(F)nc2)nc1F [Example 319] | 3.74 | 4.7 µg/mL (≈ 9.78 µM) | 0.5 µg/mL (≈ 1.04 µM) | 156 to 158 °C
23 | COc1cc(OCc2ccncc2C(F)(F)F)ccc1-c1cnc(-c2ccc(F)nc2)[nH]1 [Example 136] | 2.71 | > 89 µg/mL | 2.2 µg/mL (≈ 4.95 µM) | 181 to 192 °C
24 | COc1cc(OCc2ccc(C(F)(F)F)nc2)ccc1-c1[nH]c(C2CC(F)(F)C2)nc1Cl [Example 181] | 4.53 | 93.4 µg/mL (≈ 197 µM) | < 0.3 µg/mL | 199 to 201 °C
25 | COc1cc(OCc2ncc(C(F)(F)F)cc2F)ccc1-c1cnc(C(C)C)[nH]1 [Example 381] | 2.19 | 78.2 µg/mL (≈ 191 µM) | 66.9 µg/mL (≈ 163 µM) | 84 to 89 °C
26 | COc1cc(OCc2ccc(C(F)(F)F)nc2)ccc1-c1[nH]c(-c2ccc(F)nc2)nc1C(F)(F)F [Example 412] | 1.41 | 0.6 µg/mL (≈ 1.17 µM) | 1.5 µg/mL (≈ 2.93 µM) | 222 to 224 °C
27 | COc1c(OCc2ccc(C(F)(F)F)nc2)ccc(-c2[nH]c(C3CCC(F)(F)CC3)nc2Br)c1OC [Example 199] | 5.05 | > 115 µg/mL | < 10.2 µg/mL | 162 to 165 °C
28 | COc1cc(OCc2cnc(C)cn2)ccc1-c1c[nH]c(-c2ccc(F)nc2)n1 [Example 122] | 1.7 | 71.8 µg/mL (≈ 183 µM) | 2.9 µg/mL (≈ 7.41 µM) | 167 to 170 °C
29 | CCOC(C)n1cc(-c2ccc(OCc3ccc(C(F)(F)F)nc3)cc2OC)nc1-c1ccc(F)nc1 (stereo not drawn) [Example 328] | 2.41 | 44.2 µg/mL (≈ 85.6 µM) | 0.4 µg/mL (≈ 0.774 µM) | 102 to 104 °C
30 | COc1cc(-c2cnc(C3CCC(F)(F)CC3)[nH]2)ccc1O [Example 339] | 1.32 | > 62 µg/mL | 58.9 µg/mL (≈ 191 µM) | 131 to 136 °C
